Measured values: patent US20230416227A1, “PLASMA KALLIKREIN INHIBITORS” (Merck Sharp & Dohme LLC, priority 2020, published 2023)

target: T1, Human plasma kallikrein (Homo sapiens, UniProt P03952); assay: Plasma Kallikrein Assay; assay type: biochemical; settings: purified Human plasma kallikrein 0.5 nM, substrate Acetyl-K-P-R-AFC, pH 7.4
T1 construct: yields a heavy chain (371 amino acids) and a light chain (248 amino acids); purchased Enzyme Research Laboratories
Description: The effectiveness of a compound of the present invention as an inhibitor of plasma kallikrein can be determined using a relevant purified serine protease, and an appropriate synthetic substrate. The rate of hydrolysis of the chromogenic or fluorogenic substrate by the relevant serine protease was measured both in the absence and presence of compounds of the present invention. Assays were conducted at rt or at 37° C. […] A decrease in the rate of fluorescence change in the presence of inhibitor is indicative of enzyme inhibition. Such methods are known to one skilled in the art. The results of this assay are expressed as the half-maximal inhibitory concentrations (IC50), or the inhibitory constant, Ki.
Plasma kallikrein determinations were made in 50 mM HEPES buffer at pH 7.4 containing 150 mM NaCl, 5 mM CaCl2), and 0.1% PEG 8000 (polyethylene glycol; Fisher Scientific). […]
Times required to achieve equilibration between enzyme and inhibitor were determined in control experiments. The reactions were performed under linear progress curve conditions and fluorescence increase measured at 405 Ex/510 Em nm. […] IC50 was determined by inflection point from a four parameter logistic curve fit. Ki was calculated using the Cheng Prusoff equation, Ki=IC50/(1+([S]/Km)).

T1 sequence (P03952 391-638 limits assumed): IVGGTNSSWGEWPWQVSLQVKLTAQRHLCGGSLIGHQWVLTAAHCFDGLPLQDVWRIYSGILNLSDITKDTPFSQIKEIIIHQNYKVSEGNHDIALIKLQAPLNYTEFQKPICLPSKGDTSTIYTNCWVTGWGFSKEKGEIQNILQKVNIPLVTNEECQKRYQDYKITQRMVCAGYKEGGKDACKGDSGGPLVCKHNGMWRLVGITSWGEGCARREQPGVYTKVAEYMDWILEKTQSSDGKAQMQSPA
T1 sequence (P03952 20-390 partner limits assumed): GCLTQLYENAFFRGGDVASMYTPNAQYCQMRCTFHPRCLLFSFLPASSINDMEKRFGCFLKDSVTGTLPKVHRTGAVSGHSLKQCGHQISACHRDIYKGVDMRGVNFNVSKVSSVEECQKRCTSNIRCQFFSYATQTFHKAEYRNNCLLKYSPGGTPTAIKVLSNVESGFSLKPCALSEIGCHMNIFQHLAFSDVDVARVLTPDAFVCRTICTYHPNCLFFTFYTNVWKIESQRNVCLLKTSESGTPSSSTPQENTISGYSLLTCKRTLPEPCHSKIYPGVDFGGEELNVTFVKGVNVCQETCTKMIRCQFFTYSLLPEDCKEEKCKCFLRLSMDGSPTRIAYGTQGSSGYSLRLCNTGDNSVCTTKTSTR

Question: `N#Cc1ccc(Cl)c(F)c1-c1cncc(C(=O)Nc2cnn(Cc3ccc(N4CCC4)nc3)c2)n1` [Example 52, N-(1-((6-(Azetidin-1-yl)pyridin-3-yl)methyl)-1H-pyrazol-4-yl)-6-(3-chloro-6-cyano-2-fluorophenvl)pyrazine-2-carboxamide] was tested. Which IC50 did it give?
Answer: 17.1 nM

Question: With `CC(C)(O)CC1CCCN1c1ncc(Cn2cc(NC(=O)c3cncc(-c4c(C(F)F)ccc(Cl)c4F)n3)cn2)cn1` (stereo not shown) [Example 106, 6-(3-Chloro-6-(difluoromethyl)-2-fluorophenyl)-N-(1-((2-(2-(2-hydroxy-2-methylpropyl)pyrrolidin-1-yl)pyrimidin-5-yl)methyl)-1H-pyrazol-4-yl)pyrazine-2-carboxamide] as the compound, how does the IC50 read?
Answer: 41.3 nM

Question: For `CN1C2CCC1CN(c1ccc(Cn3cc(NC(=O)c4cncc(-c5c(C(F)F)ccc(Cl)c5F)n4)cn3)cn1)C2` [Example 205, 6-(3-Chloro-6-(difluoromethyl)-2-fluorophenyl)-N-(1-((6-(8-methyl-3,8-diazabicyclo[3.2.1]octan-3-yl)pyridin-3-yl)methyl)-1H-pyrazol-4-yl)pyrazine-2-carboxamide], which IC50 is on record?
Answer: 14.1 nM

Question: Which IC50 does the source give for `CN(C)CCN(C)c1ncc(Cn2cc(NC(=O)c3cncc(-c4c(C(F)F)ccc(Cl)c4F)n3)cn2)cn1` [Example 98, 6-(3-Chloro-6-(difluoromethyl)-2-fluorophenyl)-N-(1-((2-((2-(dimethylamino)ethyl)(methyl)amino)pyrimidin-5-yl)methyl)-1H-pyrazol-4-yl)pyrazine-2-carboxamide] here?
Answer: 28.2 nM

Question: For `O=C(Nc1cnn(Cc2ccc(N3CCCC3CCO)nc2)c1)c1cncc(-c2c(C(F)F)ccc(Cl)c2F)n1` (stereo not shown) [Example 115, 6-(3-Chloro-6-(difluoromethyl)-2-fluorophenyl)-N-(1-((6-(2-(2-hydroxyethyl)pyrrolidin-1-yl)pyridin-3-yl)methyl)-1H-pyrazol-4-yl)pyrazine-2-carboxamide], which IC50 is on record?
Answer: 3.5 nM

Question: With `CC(c1cnc(N2CC[C@H]2CN2CC[C@H](O)[C@@H](C)C2)nc1)n1cc(NC(=O)c2cncc(-c3c(C(F)F)ccc(Cl)c3F)n2)cn1` (stereo partly drawn) [Example 180, 6-(3-Chloro-6-(difluoromethyl)-2-fluorophenyl)-N-(1-(1-(2-((S)-2-(((3S,4S)-4-hydroxy-3-methylpiperidin-1-yl)methyl)azetidin-1-yl)pyrimidin-5-yl)ethyl)-1H-pyrazol-4-yl)pyrazine-2-carboxamide] as the compound, how does the IC50 read?
Answer: 1.1 nM

Question: For `CC1C2CC2CN1c1ncc(C(CO)n2cc(NC(=O)c3cncc(-c4c(C(F)F)ccc(Cl)c4F)n3)cn2)cn1` (single isomer, unassigned) [Example 51, 6-(3-Chloro-6-(difluoromethyl)-2-fluorophenyl)-N-(1-((R or S)-2-hydroxy-1-(2-((1R,2S,5S or 1S,2R, 5R)-2-methyl-3-azabicyclo[3.1.0]hexan-3-yl)pyrimidin-5-yl)ethyl)-1H-pyrazol-4-yl)pyrazine-2-carboxamide], which IC50 is on record?
Answer: 3770 nM

Question: Which IC50 does the source give for `O=C(Nc1cnn(Cc2cnc(N3CCCC3CN3CCOCC3)nc2)c1)c1cncc(-c2c(C(F)F)ccc(Cl)c2F)n1` (stereo not shown) [Example 153, 6-(3-Chloro-6-(difluoromethyl)-2-fluorophenyl)-N-(1-((2-(2-(morpholinomethyl)pyrrolidin-1-yl)pyrimidin-5-yl)methyl)-1H-pyrazol-4-yl)pyrazine-2-carboxamide] here?
Answer: 1.1 nM

Question: How did the IC50 turn out when `CC(c1cnc(N2CC3CC3C2C#N)nc1)n1cc(NC(=O)c2cncc(-c3c(C(F)F)ccc(Cl)c3F)n2)cn1` (single isomer, unassigned) [Example 197] was run?
Answer: 412 nM

Question: For `NC(=O)[C@@H]1CCCN1c1ccc(Cn2cc(NC(=O)c3cncc(-c4c(C(F)F)ccc(Cl)c4F)n3)cn2)cn1` [Example 116, (S)-N-(1-((6-(2-Carbamoylpyrrolidin-1-yl)pyridin-3-yl)methyl)-1H-pyrazol-4-yl)-6-(3-chloro-6-(difluoromethyl)-2-fluorophenyl)pyrazine-2-carboxamide], which IC50 is on record?
Answer: 3.6 nM

Question: How did the IC50 turn out when `CN(C)C(=O)[C@@H]1CCCN1c1ccc(Cn2cc(NC(=O)c3cncc(-c4c(C(F)F)ccc(Cl)c4F)n3)cn2)cn1` [Example 125, (S)-6-(3-Chloro-6-(difluoromethyl)-2-fluorophenyl)-N-(1-((6-(2-(dimethylcarbamoyl)pyrrolidin-1-yl)pyridin-3-yl)methyl)-1H-pyrazol-4-yl)pyrazine-2-carboxamide] was run?
Answer: 28.3 nM

Question: `CC(N)C1CCCN1c1ncc(Cn2cc(NC(=O)c3cncc(-c4c(C(F)F)ccc(Cl)c4F)n3)cn2)cn1` (single isomer, unassigned) [Example 160, N-(1-((2-(2-(1-Aminoethyl)pyrrolidin-1-yl)pyrimidin-5-yl)methyl)-1H-pyrazol-4-yl)-6-(3-chloro-6-(difluoromethyl)-2-fluorophenyl)pyrazine-2-carboxamide] was tested. Which IC50 did it give?
Answer: 42.9 nM

Question: For `CN(C)CCN(CCO)c1ncc(Cn2cc(NC(=O)c3cncc(-c4c(C(F)F)ccc(Cl)c4F)n3)cn2)cn1` [Example 88, 6-(3-Chloro-6-(difluoromethyl)-2-fluorophenyl)-N-(1-((2-((2-(dimethylamino)ethyl)(2-hydroxyethyl)amino)pyrimidin-5-yl)methyl)-1H-pyrazol-4-yl)pyrazine-2-carboxamide], which IC50 is on record?
Answer: 14.9 nM

Question: How did the IC50 turn out when `O=C(Nc1cnn(Cc2cnc(N3CCCC3CNCC(F)F)nc2)c1)c1cncc(-c2c(C(F)F)ccc(Cl)c2F)n1` (stereo not shown) [Example 157, 6-(3-Chloro-6-(difluoromethyl)-2-fluorophenyl)-N-(1-((2-(2-(((2,2-difluoroethyl)amino)methyl)pyrrolidin-1-yl)pyrimidin-5-yl)methyl)-1H-pyrazol-4-yl)pyrazine-2-carboxamide] was run?
Answer: 9.3 nM

Question: For `O=C(Nc1cnn(Cc2ccc(N3CCCC3CO)nc2)c1)c1cncc(-c2c(C(F)F)ccc(Cl)c2F)n1` (stereo not shown) [Example 118, 6-(3-Chloro-6-(difluoromethyl)-2-fluorophenyl)-N-(1-((6-(2-(hydroxymethyl)pyrrolidin-1-yl)pyridin-3-yl)methyl)-1H-pyrazol-4-yl)pyrazine-2-carboxamide], which IC50 is on record?
Answer: 12.5 nM

Question: `CC(c1cnc(N(C)CC(=O)N(C)C)nc1)n1cc(NC(=O)c2cncc(-c3c(C(F)F)ccc(Cl)c3F)n2)cn1` (stereo not shown) [Example 72, 6-(3-Chloro-6-(difluoromethyl)-2-fluorophenyl)-N-(1-(1-(2-((2-(dimethylamino)-2-oxoethyl)(methyl)amino)pyrimidin-5-yl)ethyl)-1H-pyrazol-4-yl)pyrazine-2-carboxamide] was tested. Which IC50 did it give?
Answer: 2.5 nM

Question: For `CC(=O)N1CC[C@@H]2CN(c3ccc(Cn4cc(NC(=O)c5cncc(-c6c(C(F)F)ccc(Cl)c6F)n5)cn4)cn3)[C@@H]2C1` [Example 133, N-(1-((6-((1S,6R)-3-Acetyl-3,8-diazabicyclo[4.2.0]octan-8-yl)pyridin-3-yl)methyl)-1H-pyrazol-4-yl)-6-(3-chloro-6-(difluoromethyl)-2-fluorophenyl)pyrazine-2-carboxamide], which IC50 is on record?
Answer: 49.5 nM

Question: `Cc1cc(N2CCC2)ncc1[C@@H](C)n1cc(NC(=O)c2cncc(-c3c(C(F)F)ccc(Cl)c3F)n2)cn1` (single isomer, unassigned) [Example 67] was tested. Which IC50 did it give?
Answer: 153 nM

Question: `Nc1ncc(-c2c(C(F)F)ccc(Cl)c2F)nc1C(=O)Nc1cnn(Cc2cnc(N3CCC3)nc2)c1` [Example 3, 3-Amino-N-(1-((2-(azetidin-1-yl)pyrimidin-5-yl)methyl)-1H-pyrazol-4-yl)-6-(3-chloro-6-(difluoromethyl)-2-fluorophenyl)pyrazine-2-carboxamide] was tested. Which IC50 did it give?
Answer: 40.5 nM
